Results on one compound are retold here after patent US10300143B2, “Compositions for treating cancer and methods for making the same” (THE BRIGHAM AND WOMEN'S HOSPITAL, INC., priority 2012, dated 2019).

As a reminder, the IC50 is the midpoint of a concentration-inhibition curve. A higher IC50 goes with weaker potency in that assay.

For data set [1], the system named is 4T1 murine breast cancer cell line. The data set is described as follows: Cell viability (MTS) assay. Format: cell-based. The conditions noted are these: Mus musculus. The method, then:
(§1) 4T1 and MDA MB 468 breast cancer cells were cultured in RPMI, 4306 ovarian cancer cells were cultured in DMEM, supplemented with 10% FBS and 1% of Antibiotic-Antimycotic 100× solution. 4×10^3 Cells were seeded into 96-well flat-bottomed plates. Free drug or drug loaded nanoparticles (normalized to equivalent amounts of free drug) were added in triplicate in each 96-well plate and then plates were incubated in 5% CO^2 atmosphere at 37° C. After desired time period of incubation, cells were washed and incubated with 100 μL phenol-red free medium (without FBS) containing 20 μl of the CellTiter 96 Aqueous One Solution reagents (PROMEGA, WI). After 2 hours incubation, the absorbance in each well was recorded.
(§2) 4T1 and MDA MB 468 breast cancer cells were cultured in RPMI, 4306 ovarian cancer cells were cultured in DMEM, supplemented with 10% FBS and 1% of Antibiotic-Antimycotic 100× solution (Invitrogen, 15240-062). 4×10^3 Cells were seeded into 96-well flat-bottomed plates. Free drug or drug loaded nanoparticles (normalized to equivalent amounts of free drug) was added in triplicate in each 96-well plate at appropriate concentrations (1, 10, 100 nM and 1, 10, and […]) and then plates were incubated in 5% CO2 atmosphere at 37° C. After desired time period of incubation, cells were washed and incubated with […] phenol-red free medium (without FBS) containing […] of the CellTiter 96 Aqueous One Solution reagents (Promega, WI). After 2 hours incubation in a 5% CO2 atmosphere at 37° C., the absorbance in each well was recorded at 490 nm using an Epoch plate reader (Biotek instruments, VT). The absorbance reflects the number of surviving cells. Blanks were subtracted from all data and results analyzed using GraphPad Prism™ software (GraphPad, San Diego, Calif.). Each experiment was independently repeated thrice and data shown is mean±SE of n=3.

Data set [2] concerns MDA-MB-468 human breast cancer cell line. Briefly: Cell viability (MTS) assay. Format: cell-based. The method, then: as §1, §2
Data set [3] concerns PI3K-overexpressing 4306 ovarian cancer cell line. Briefly: Cell viability (MTS) assay. Format: cell-based. The method, then:
as §1, §2

Data set [4] concerns phospho AKT, phospho mTOR, phospho 4EBP in 4T1 tumors. The data set is described as follows: Western blot assay of in vivo 4T1 tumor samples. The arrangement: species or system BALB/c mice. The conditions noted are these: single injection 5 mg/kg, 72 hours. The method, then: For animal tissue, tumor stored in −80° C. were pulverized in a mortar and pestle using liquid nitrogen, then treated with RIPA buffer to extract the protein. Amount of protein was measured by BCA assay and equal amount of protein lysates were electrophoresed on a polyacrylamide gel, then transferred to polyvinylidene difluoride membrane, (BIO-RAD) and blocked in with 5% milk solution. Then membranes were incubated with appropriate concentration of primary antibody overnight at 4° C., followed by horseradish peroxidase-conjugated secondary antibody for 1 hour. Detection was done using G-box from SYNGENE and densitometric quantification was done by IMAGE-J software.
For animal tissue, tumor stored in −80° C. were pulverized in a mortar and pestle using liquid nitrogen, then treated with RIPA buffer to extract the protein. Amount of protein was measured by BCA assay and equal amount of protein lysates were electrophoresed on a polyacrylamide gel, then transferred to polyvinylidene difluoride membrane, (Bic-Rad) and blocked in with 5% milk scullion. Then membranes were incubated with appropriate concentration of primary antibody (all antibodies from Cell Signalling Technology) overnight at 4° C., followed by horseradish peroxidase-conjugated secondary antibody for 1 hour. Detection was done using G-box from Syngene and densitometric quantification was done by image J™ software.
Background: Immunoblotting shows a protein as a band on a membrane.

Data set [5] in a line: Insulin tolerance test using PI103-SNPs. Format: in vivo, mice (murine 4T1 breast cancer model). The conditions noted are these: 5 mg/kg single dose, insulin 0.75 U/kg 1 hour later, glucose 45 min after insulin. On the procedure:
Random fed mice (murine 4T1 breast cancer model) were injected with a single dose of Empty nanoparticles (Control), Free PI-103 (5 mg/kg) and PI103-SNPs via tail vain injections. Freshly prepared Insulin solution (0.75 U/Kg) in 0.1 ml 0.9% NaCl was injected intraperitoneally to mice 1 hour after the drug administration. The blood glucose levels were measured before and 45 min after the insulin injections using glucometer.

The subject of data set [6] is K-Ras^LSL/+/Pten^fl/fl ovarian cancer. Briefly: Efficacy study of PI103-SNPs in murine ovarian cancer tumor model. The settings on record: after 3 doses, 5 mg/kg. Format: in vivo, mice. On the procedure:
Ovarian adenocarcinomas were induced in genetically engineered K-Ras^LSL/+/Pten^fl/fl mice via intrabursal delivery of adenovirus-carrying Cre recombinase. Tumor cells were also engineered to express luciferase once activated by Adeno-Cre to make tumor imaging possible before and after drug treatment. Once mice developed medium to large tumors, they were placed into one of four treatment groups (vehicle, Free-PI-103 5 mg/kg, PI-103-SNP 5 mg/kg, and iRGD-PI103-SNP 5 mg/kg) and all drugs were administered via tail vein injection. Tumor imaging in vivo was performed using an 1VIS Lumina II Imaging System. Quantification of bioluminescence was achieved by using Living Image Software 3.1 (Caliper Life Sciences). Images were taken a day prior to initial treatment (day 0, baseline image), after 3 treatments, and 1 d after 5 treatments.
Ovarian adenocarcinomas were induced in genetically engineered K-ras isu+/Pten mice via intrabursal delivery of adenovirus-carrying Cre recombinase. Tumor cells were also engineered to express luciferase once activated by Adeno-Cre to make tumor imaging possible before and after drug treatment. […] Quantification of bioluminescence was achieved by using Living Image Software 3.1™ (Caliper Life Sciences). […]

The conditions of data set [7]: cited from earlier work.

On to `Oc1cccc(-c2nc(N3CCOCC3)c3oc4ncccc4c3n2)c1` [PI103], for which the IC50 in data set [1] (48 hours) was determined as 122 ± 3.15 nM; in data set [1] (72 hours), 67.3 ± 3.4 nM; in data set [2] (48 hours) it was 445 ± 67 nM; in data set [2] (72 hours) it was 312 ± 49 nM; in data set [3] (48 hours), 286 ± 45 nM; in data set [3] (72 hours), 392 ± 49.3 nM. For the same compound, the “intratumoral Akt phosphorylation” value in data set [4] is “intratumoral Akt phosphorylation was inhibited”. In addition, the “blood glucose level after insulin injection” value in data set [5] was “only a minor decrease in blood glucose level”. Also, in data set [6], the tumor luciferase bioluminescence entry is recorded as “significant tumor regression as compared to vehicle control”. Also, the aqueous solubility result in data set [7] is “limited aqueous solubility”.
